Measurements from US20250387390A1, “METHODS FOR TREATING FIBROSIS USING PKM2 ACTIVATORS” (Proda Biotech L.L.C., priority 2020, published 2025).

Key:
LX2 cells [1] = assay: qRT-PCR of Col1A1, PHGDH, PSAT1, SHMT1, SHMT2 mRNA in LX2 cells after TGFβ; type: cell-based; conditions: following TGFβ treatment, vs DMSO, qRT-PCR fold change
Method: Cellular levels of mRNA of collagen (Col1A1), PHGDH, PSAT1, SHMT1, and SHMT2 in LX2 cells with DASA-10 (black bar) or DMSO (open bar) treatment following TGFβ treatment were analyzed by qRT-PCR. The cellular mRNA levels are presented as fold change by comparing controls. Error bars represent mean±S.E.M.

LX2 cells [2] = assay: LOX and LOXL2 expression in LX2 cells under hypoxia (immunoblot, qPCR); type: cell-based; conditions: 10 μM, hypoxia 24 hours, vs DMSO
Method: (§1) Section (B) Relative band intensities were calculated for both LOX and LOXL2 using ImageJ.

NLF cells = assay: LOX and LOXL2 expression in NLF cells under hypoxia (immunoblot, qPCR); type: cell-based; conditions: 10 μM, hypoxia 24 hours, vs DMSO
Method: as §1

[3] = system: TAA/alcohol liver fibrosis; assay: TAA/alcohol liver fibrosis induction in mice with subsequent treatment; type: in vivo
Method: (§2) Sections (A) & (E) of FIG. 1 are schematic illustrations of the schedule of TAA/alcohol liver fibrosis (A) and bleomycin lung fibrosis (E) induction and subsequent TEPP-46 treatments. […] Sections (C) & (D) of FIG. 1 show quantitation of collagen levels in Sirius red (B) and Masson's trichrome (F) staining and a-SMA IF (B) and IHC (F) staining of fibrotic liver (B) and lung (F) using ImageJ software. Quantification was calculated from measurements of 10 mice. Four randomly selected tissue sections per animal and three randomly selected view fields in each section were quantified. The quantity of collagen levels in Sirius red or Masson's trichrome stain and α-SMA IF or IHC stain is presented as % of total area. […] Sections (G) & (H) show Quantitative analyses of Serine (G) and Glycine (H) levels in tissue extracts of liver and lung from mice treated with indicated agents by HPLC-ms. Serine and glycine levels are presented as relative abundance by defining the vehicle treated group as 100%. Error bars in Sections C, D, G, H represent mean±S.E.M

bleomycin lung fibrosis = assay: Bleomycin lung fibrosis induction in mice with subsequent treatment; type: in vivo
Method: as §2

cerulein pancreatitis = assay: Cerulein pancreatitis induction in mice with subsequent treatment; type: in vivo; conditions: cerulein-induced, vs vehicle
Method: Section (A) is schematic illustration of the schedule of cerulein (red arrows) pancreatitis induction and subsequent TEPP-46 treatments (green arrows). […] Quantification was calculated from measurements of 6 mice. Four randomly selected tissue sections per animal and three randomly selected view fields in each section were quantified. The quantity of collagen levels in Sirius red stain is presented as % of total area.

[4] = system: myocardial infarction (MI); assay: Myocardial infarction by left ventricle ligation, cardiac fibrosis; type: in vivo; conditions: C57BL/6J mice, LV ligation 70 minutes, i.p. injection, vs vehicle
Method: C57BL/6J mice (n=6/group) were induced myocardial infarction (MI) by left ventricle ligation (LV). Sham are the mice underwent the same surgical procedure without LV. After 70 minutes, the LV was relieved. All mice were immediately treated with TEPP-46 or vehicle by i.p. injection. No treatment for the Sham mice. […] Scale bars, […]. […] The quantification is a mean value of randomly selected 4 fields from each section. Four sections were randomly selected from each mouse. The quantification is presented as blue staining Collagen Area (%). Error bars represent mean±S.E.M. * P<0.05, ** P<0.01, *** P<0.001, by unpaired two-tailed Student's t-test.

| SMILES | metabolic enzymes involved in serine/glycine metabolism (mRNA of Col1A1, PHGDH, PSAT1, SHMT1, SHMT2) (LX2 cells [1]) | LOX and LOXL2 expression (LX2 cells [2]) | LOX and LOXL2 expression (NLF cells) | liver fibrosis (collagen by Sirius red, α-SMA IF staining, % of total area) ([3]; TAA/alcohol liver fibrosis, mice, vs vehicle) | LOX expression in vivo (IHC LOX positive area, LOX activity) ([3]; fibrotic liver, TAA/alcohol model) | serine/glycine metabolism (serine and glycine levels in tissue extracts by HPLC-ms) ([3]; fibrotic liver, relative abundance, vehicle group = 100%) | lung fibrosis (collagen by Masson's trichrome, α-SMA IHC staining, % of total area) (bleomycin lung fibrosis; bleomycin lung fibrosis, mice, vs vehicle) | serine/glycine metabolism (serine and glycine levels in tissue extracts by HPLC-ms) (bleomycin lung fibrosis; fibrotic lung, relative abundance, vehicle group = 100%) | LOX expression in vivo (IHC LOX positive area, LOX activity) (bleomycin lung fibrosis; fibrotic lungs, bleomycin model) | pancreatitis (collagen in Sirius red staining, H&E of pancreas) (cerulein pancreatitis) | cardiac fibrosis after infarction (trichrome Collagen Area %) [4] |
| --- | --- | --- | --- | --- | --- | --- | --- | --- | --- | --- | --- |
| O=S(=O)(c1ccc2c(c1)OCCO2)N1CCN(S(=O)(=O)c2c(F)cccc2F)CC1 [DASA-10] | decreases metabolic enzymes that are involved in serine/glycine metabolism | reduces LOX and LOXL2 expression | reduces LOX and LOXL2 expression |  |  |  |  |  |  |  |  |
| Cn1c2cc([S+](C)[O-])sc2c2cnn(Cc3cccc(N)c3)c(=O)c21 (centres unmarked) [TEPP-46] |  |  |  | reverses liver and lung fibrosis | reduces LOX expression in vivo | decreases serine/glycine metabolism | reverses liver and lung fibrosis | decreases serine/glycine metabolism | reduces LOX expression in vivo | reverse pancreatitis | decreases cardiac fibrosis after infarction |
